Data: article PMC4624630, “Enzymatic Synthesis of Rhamnose Containing Chemicals by Reverse Hydrolysis” (PLoS ONE, 2015)

Biological target: T1, RhaL1 (α-L-rhamnosidase from Alternaria sp. L1) (Alternaria sp. L1, UniProt H6UY33)
T1 construct: recombinant, secreted from Pichia pastoris GS115 (vector pPIC9K, SnaBI/NotI), N-glycosylated; about 120 kDa on SDS-PAGE, about 85 kDa after PNGase F
T1 sequence (H6UY33 20-681): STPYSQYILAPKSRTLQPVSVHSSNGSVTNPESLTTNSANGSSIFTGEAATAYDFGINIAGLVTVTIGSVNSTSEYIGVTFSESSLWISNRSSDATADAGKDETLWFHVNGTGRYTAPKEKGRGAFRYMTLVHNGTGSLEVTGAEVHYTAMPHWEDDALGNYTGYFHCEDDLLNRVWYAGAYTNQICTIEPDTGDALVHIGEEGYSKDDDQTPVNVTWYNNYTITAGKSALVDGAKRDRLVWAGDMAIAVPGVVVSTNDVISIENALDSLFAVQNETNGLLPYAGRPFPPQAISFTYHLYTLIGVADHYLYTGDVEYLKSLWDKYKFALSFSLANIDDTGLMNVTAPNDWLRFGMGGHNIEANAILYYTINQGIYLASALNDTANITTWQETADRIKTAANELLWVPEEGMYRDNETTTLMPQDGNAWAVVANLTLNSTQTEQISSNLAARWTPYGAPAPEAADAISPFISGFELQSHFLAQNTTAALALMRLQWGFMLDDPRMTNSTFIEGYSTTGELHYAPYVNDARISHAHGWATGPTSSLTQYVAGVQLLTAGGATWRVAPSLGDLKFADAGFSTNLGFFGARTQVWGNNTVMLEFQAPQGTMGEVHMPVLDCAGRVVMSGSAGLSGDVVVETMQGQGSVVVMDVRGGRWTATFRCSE
Assay: reverse hydrolysis; HPLC, product by ESI-MS and NMR
Format: biochemical
Details: glycosyl donor, acceptor D-mannitol (also D-fructose, esculin); pH 6.5, 55 °C, 48 h

## C[C@@H]1OC(O)[C@H](O)[C@H](O)[C@H]1O (stereo partly drawn) [L-rhamnose]
  reverse hydrolysis; HPLC, product by ESI-MS and NMR: synthesized by the recombinant RhaL1 using L-rhamnose as the glycosyl donor and mannitol as the acceptor
